Measured values taken from the supplement of paper PMC11061612.

Experiments:
Assay in all cases: Bliss excess, mean over the matrix (fraction); higher = more synergy
[1] = system: A4-Fuk (B-Lymphoblastic Leukemia)
Procedure, shortened: (§1)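 Bliss excess equals the observed combination effect minus the expected value EA + EB − EA·EB, where EA and EB are the effects of each agent alone. Combination Emax is the second-highest inhibition within the matrix. Inhibition was scaled from CellTiter-Glo 2.0 luminescence, with 0 set by vehicle wells and 1 by blank wells, after 72 hours of two-drug dosing of cells plated in 1536-well plates.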

[2] = system: ALL-SIL (T-Lymphoblastic Leukemia)
Procedure, shortened: as §1

[3] = system: CADO-ES1 (Ewing's Sarcoma)
Procedure, shortened: as §1

[4] = system: COLO-668 (Small Cell Lung Carcinoma)
Procedure, shortened: as §1

[5] = system: G-401 (Other Solid Carcinomas)
Procedure, shortened: as §1

[6] = system: HAL-01 (B-Lymphoblastic Leukemia)
Procedure, shortened: as §1

[7] = system: HCC2998 (Colorectal Carcinoma)
Procedure, shortened: as §1

[8] = system: Hey (Ovarian Carcinoma)
Procedure, shortened: as §1

[9] = system: KGN (Other Solid Carcinomas)
Procedure, shortened: as §1

[10] = system: KOPN-8 (B-Lymphoblastic Leukemia)
Procedure, shortened: as §1

[11] = system: LC-1-sq (Squamous Cell Lung Carcinoma)
Procedure, shortened: as §1

[12] = system: MOG-G-UVW (Low Grade Glioma)
Procedure, shortened: as §1

[13] = system: NCI-H1838 (Lung Adenocarcinoma)
Procedure, shortened: as §1

[14] = system: NCI-H2122 (Lung Adenocarcinoma)
Procedure, shortened: as §1

[15] = system: NCI-H650 (Lung Adenocarcinoma)
Procedure, shortened: as §1

[16] = system: OACM5-1 (Esophageal Adenocarcinoma)
Procedure, shortened: as §1

[17] = system: SK-LU-1 (Lung Adenocarcinoma)
Procedure, shortened: as §1

[18] = system: SKN (Other Solid Carcinomas)
Procedure, shortened: as §1

[19] = system: SNU-387 (Hepatocellular Carcinoma)
Procedure, shortened: as §1

[20] = system: SW872 (Other Solid Carcinomas)
Procedure, shortened: as §1

SMILES	Bliss excess [1]	Bliss excess [2]	Bliss excess [3]	Bliss excess [4]	Bliss excess [5]	Bliss excess [6]	Bliss excess [7]	Bliss excess [8]	Bliss excess [9]	Bliss excess [10]	Bliss excess [11]	Bliss excess [12]	Bliss excess [13]	Bliss excess [14]	Bliss excess [15]	Bliss excess [16]	Bliss excess [17]	Bliss excess [18]	Bliss excess [19]	Bliss excess [20]
CN(C)CCCOc1ccc(-c2ccc3ncc4c(c3c2)n(C2CCOCC2)c(=O)n4C)cn1 [AZD0156] + C=CCn1c(=O)c2cnc(Nc3ccc(N4CCN(C)CC4)cc3)nc2n1-c1cccc(C(C)(C)O)n1 [AZD1775] (first compound max 1 µM, partner max 1 µM)	-0.0274	-0.0205	0.0196	-0.039	-0.0734	0.053	0.057	-0.0242	-0.0028	-0.0256	-0.0248	-0.0525	-0.0296	0.0551	-0.0593	-0.051	-0.0264	-0.0548	-0.054	-0.0183
CN(C)CCCOc1ccc(-c2ccc3ncc4c(c3c2)n(C2CCOCC2)c(=O)n4C)cn1 [AZD0156] + CCN(CCO)CCCOc1ccc2c(Nc3cc(CC(=O)Nc4cccc(F)c4)[nH]n3)ncnc2c1 [AZD2811] (first compound max 1 µM, 7x7, partner max 1 µM)	0.0911	-0.0532	0.0131	-0.0175	-0.0279	0.0135	0.0314	0.0051	-0.0306	0.0535	0.0392	0.045	-0.0122	0.0471	-0.0159	-0.0366	-0.0518	-0.0358	-0.0569	-0.0311
CN(C)CCCOc1ccc(-c2ccc3ncc4c(c3c2)n(C2CCOCC2)c(=O)n4C)cn1 [AZD0156] + C[C@@H]1COCCN1C2=NC(=NC(=C2)C3(CC3)[S@](=N)(=O)C)C4=C5C=CNC5=NC=C4 [AZD6738] (first compound max 1 µM, 7x7, partner max 10 µM)	-0.0079	-0.0759	0.0405	-0.017	-0.0017	-0.0648	0.0637	-0.019	-0.0172	-0.0166	-0.0098	0.0282	-0.0082	0.0154	-0.011	-0.0282	0.0073	-0.0069	0.0187	0.0187
CN(C)CCCOc1ccc(-c2ccc3ncc4c(c3c2)n(C2CCOCC2)c(=O)n4C)cn1 [AZD0156] + O=C(c1cc(Cc2n[nH]c(=O)c3ccccc23)ccc1F)N1CCN(C(=O)C2CC2)CC1 [Olaparib] (first compound max 3 µM, partner max 3 µM)	0.0383	0.0281	0.285	-0.0077	0.0269	0.191	0.0824	0.106	0.156	0.31	-0.0374	0.204	-0.0093	0.109	-0.014	-0.0162	-0.017	0.0023	0.0072	-0.0318
C=CCn1c(=O)c2cnc(Nc3ccc(N4CCN(C)CC4)cc3)nc2n1-c1cccc(C(C)(C)O)n1 [AZD1775] + C1CN(CCC1(C(=O)N[C@@H](CCO)C2=CC=C(C=C2)Cl)N)C3=NC=NC4=C3C=CN4 [Capivasertib] (first compound max 3 µM, partner max 3 µM)	-0.0977	-0.0129	0.006	-0.0726	-0.0241	-0.0528	0.0232	-0.0475	-0.0195	0.0369	-0.128	-0.0039	-0.0978	0.0752	0.0136	-0.0553	0.0164	-0.0375	-0.0435	-0.106
C=CCn1c(=O)c2cnc(Nc3ccc(N4CCN(C)CC4)cc3)nc2n1-c1cccc(C(C)(C)O)n1 [AZD1775] + C[C@@H]1COCCN1C2=NC(=NC(=C2)C3(CC3)[S@](=N)(=O)C)C4=C5C=CNC5=NC=C4 [AZD6738] (first compound max 1 µM, partner max 10 µM)	-0.0203	0.044	0.0441	0.0917	-0.0293		0.0923	0.0385	-0.0578	-0.0006	0.0139	0.0202	-0.0173	-0.0303	0.0062	0.0994	-0.0774	-0.0185	-0.0302	0.053
C=CCn1c(=O)c2cnc(Nc3ccc(N4CCN(C)CC4)cc3)nc2n1-c1cccc(C(C)(C)O)n1 [AZD1775] + O=C(c1cc(Cc2n[nH]c(=O)c3ccccc23)ccc1F)N1CCN(C(=O)C2CC2)CC1 [Olaparib] (first compound max 1 µM, partner max 10 µM)	-0.0794	-0.0303	0.0402	0.0104	-0.0999	-0.0542	-0.057	-0.0327	-0.0844	-0.016	-0.0216	-0.0329	-0.0774	-0.0522	-0.0532	-0.0363	-0.0306	-0.0048	-0.075	0.0141
CCN(CCO)CCCOc1ccc2c(Nc3cc(CC(=O)Nc4cccc(F)c4)[nH]n3)ncnc2c1 [AZD2811] + C=CCn1c(=O)c2cnc(Nc3ccc(N4CCN(C)CC4)cc3)nc2n1-c1cccc(C(C)(C)O)n1 [AZD1775] (first compound max 1 µM, partner max 1 µM)	-0.0665	-0.0408	-0.0086	0.0144	0.0421	0.0495	-0.0014	0.0154	-0.0196	0.0507	0.0025	-0.0202	-0.0575	0.0618	0.0178	0.0426	-0.0132	-0.0278	-0.0155	0.0203
CCN(CCO)CCCOc1ccc2c(Nc3cc(CC(=O)Nc4cccc(F)c4)[nH]n3)ncnc2c1 [AZD2811] + C[C@@H]1COCCN1C2=NC(=NC(=C2)C3(CC3)[S@](=N)(=O)C)C4=C5C=CNC5=NC=C4 [AZD6738] (first compound max 1 µM, 7x7, partner max 10 µM)	-0.008	-0.0499	-0.012	-0.038	-0.0518	0.0306	-0.0574	-0.0498	-0.0854	0.032	-0.0239	-0.0581	-0.0107	-0.0436	-0.0422	-0.0628	-0.0586	-0.0432	-0.0864	-0.0219
CCN(CCO)CCCOc1ccc2c(Nc3cc(CC(=O)Nc4cccc(F)c4)[nH]n3)ncnc2c1 [AZD2811] + O=C(c1cc(Cc2n[nH]c(=O)c3ccccc23)ccc1F)N1CCN(C(=O)C2CC2)CC1 [Olaparib] (first compound max 1 µM, 7x7, partner max 10 µM)	-0.0212	-0.0525	0.0242	-0.0032	0.0174	-0.043	0.0257	0.0251	-0.0152	0.0034	0.0434	-0.0088	-0.0348	0.0155	-0.003	0.0082	-0.0373	-0.0168	-0.0755	0.017
Cc1c2c(nn1C)CSCc1cc(n(C)n1)CSc1cc(c3ccccc3c1)OCCCc1c(C(=O)O)n(C)c3c-2c(Cl)ccc13 [AZD5991] + C=CCn1c(=O)c2cnc(Nc3ccc(N4CCN(C)CC4)cc3)nc2n1-c1cccc(C(C)(C)O)n1 [AZD1775] (first compound max 1 µM, partner max 1 µM)	0.0204	0.0026	-0.0308	-0.0643	0.0023	-0.0197	0.0142	-0.0325	-0.002	-0.0397	-0.0139	-0.0756	0.0159		0.0397	-0.04	-0.0082	-0.0269	-0.0632	0.0634
Cc1c2c(nn1C)CSCc1cc(n(C)n1)CSc1cc(c3ccccc3c1)OCCCc1c(C(=O)O)n(C)c3c-2c(Cl)ccc13 [AZD5991] + Cc1cc2ncnn2cc1Nc1ncc2c(n1)n(C1CCOCC1)c(=O)n2C [AZD7648] (first compound max 1 µM, 7x7, partner max 10 µM)	0.0085	-0.0253	-0.0296	0.0003	-0.167	0.0227	-0.0317	-0.015	-0.0404	-0.0816	0.0048	0.0048	-0.0929	-0.0559	-0.0101		-0.062	-0.0386	-0.0318	-0.0235
CS(=O)(=O)CCNCc1ccc(-c2ccc3ncnc(Nc4ccc(OCc5cccc(F)c5)c(Cl)c4)c3c2)o1 [Lapatinib] + NC1(c2ccc(-c3nc4ccn5c(=O)[nH]nc5c4cc3-c3ccccc3)cc2)CCC1 [MK-2206] (first compound max 10 µM, 7x7, partner max 10 µM)	0.0825			-0.0393		0.0687			0.0078	-0.0586		0.0675	-0.0422		-0.0464		-0.0239	-0.0645	0.0033	-0.0066
O=C(c1cc(Cc2n[nH]c(=O)c3ccccc23)ccc1F)N1CCN(C(=O)C2CC2)CC1 [Olaparib] + Cc1c2c(nn1C)CSCc1cc(n(C)n1)CSc1cc(c3ccccc3c1)OCCCc1c(C(=O)O)n(C)c3c-2c(Cl)ccc13 [AZD5991] (first compound max 10 µM, 7x7, partner max 1 µM)	-0.0387			-0.0495		-0.0229			-0.0651			-0.0125					-0.0436	-0.0407	-0.0935	-0.0377
Cc1nc(-c2cn3c(n2)-c2ccc(-c4cnn(C(C)(C)C(N)=O)c4)cc2OCC3)n(C(C)C)n1 [Taselisib] + O=C(Nc1ccc2[nH]nc(-c3ccncc3)c2c1)[C@@H]1CCN(CC(=O)N2CCN(c3ccc(-c4ncccn4)cc3)CC2)C1 [SCH772984] (first compound max 10 µM, 7x7, partner max 5 µM)	0.0883			0.0737		-0.0711			0.0378			0.0333					0.0898	-0.0535	0.122	0.0712
CC1(C)CCC(CN2CCN(c3ccc(C(=O)NS(=O)(=O)c4ccc(NCC5CCOCC5)c([N+](=O)[O-])c4)c(Oc4cnc5[nH]ccc5c4)c3)CC2)=C(c2ccc(Cl)cc2)C1 [Venetoclax] + CS(=O)(=O)CCNCc1ccc(-c2ccc3ncnc(Nc4ccc(OCc5cccc(F)c5)c(Cl)c4)c3c2)o1 [Lapatinib] (first compound max 1 µM, 7x7, partner max 10 µM)	-0.0406			0.0091		0.102			-0.0609			-0.0012					-0.0772	-0.0497	-0.0514	-0.0313
